In patent publication US7279161B2, “Factor IX/factor IXa activating antibodies and antibody derivatives” (Baxter Aktiengesellschaft, priority 1999, dated 2007):
“Also recorded” adds a separate entry of the source.

Legend:
factor IXa = molecular target: T1, factor IXa (Bos taurus, UniProt P00741); test: Chromogenic FVIII assay (COATEST VIII:C/4) with the kit's FIXa/FX; type: biochemical, bovine; details: bovine FIXa and FX only; A1/3 24 μM
T1 construct: purchased Chromogenix COATEST VIII:C/4
Procedure: In order to assay the FVIII-like activity of anti-FIXa antibodies secreted by hybridoma cells, the commercially available test-kit COATEST VIII:C/4® (Chromogenix) was employed. The assay was done essentially as described by the manufacturer with the following modifications:
To allow high throughput screening, the assay was downscaled to microtiter plate format. Briefly, 25 μl aliquots of hybridoma supernatants were transferred to microtiter plate (Costar, #3598) wells and warmed to 37° C. Chromogenic substrate (S-2222), synthetic thrombin inhibitor (I-2581), factor (F) IXa and FX were reconstituted in sterile water and FIXa/FX was mixed with phospholipids according to the supplier's protocol. Per reaction, 50 μl of the phospholipid/FIXa/FX solution were combined with 25 μl CaCl2 (25 mM) and 50 μl of the substrate/inhibitor cocktail. To start the reaction, 125 μl of the premix were added to the hybridoma supernatant in the microtiter plates and incubated at 37° C. Absorbency at 405 nm and 490 nm of the samples was read at various times (30 min to 12 h) against a reagent blank (MLW, cell culture medium instead of hybridoma supernatant) in a Labsystems iEMS Reader MF™ microtiter plate reader. FVIII-like activity of the samples was calculated by comparing the absorbency of the samples against the absorbency of a diluted FVIII reference standard (IMMUNO AG #5T4AR00) using GENESIS™ software.
Several anti-FIX/FIXa antibody producing hybridoma clones were subcloned up to four times and the resulting monoclonal hybridoma cell line used to produce monoclonal antibody containing supernatant. IgG isotype antibodies derived from these supernatants were purified over affinity columns and dialyzed against TBS (see above). IgM antibodies were used as unpurified supernatant fractions. […] Absorbance at 405 nm and 490 nm of the samples was read at various times (5 min to 6 h) against a reagent blank (cell culture medium instead of hybridoma supernatant) in a Labsystems iEMS Reader MF™ microtiter plate reader using GENESIS™ software. […]

FVIII inhibitor plasma = test: aPTT based one stage clotting assay in FVIII inhibitor plasma; type: biochemical; details: inhibitor plasma 8.1 Bethesda Units per ml
Procedure: […] […] […] After a 4 minute incubation, the reaction was started by the addition of 100 μl CaCl2 (25 mM). To ensure equal conditions, the experiments employing FVIII deficient plasma and FVIII inhibitor plasma were done side by side.
To assay for the procoagulant activity of peptide A1/3 in FVIII inhibitor plasma the following experiment was carried out. We performed a standard aPTT based one stage clotting assay, but instead of FVIII deficient plasma we employed FVIII inhibitor plasma.

T1 sequence (P00741 47-192 limits assumed): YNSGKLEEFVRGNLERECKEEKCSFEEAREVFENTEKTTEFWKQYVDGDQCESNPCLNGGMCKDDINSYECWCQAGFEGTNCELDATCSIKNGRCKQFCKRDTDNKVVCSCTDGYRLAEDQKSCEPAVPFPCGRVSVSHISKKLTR
T1 sequence (P00741 228-462 limits assumed): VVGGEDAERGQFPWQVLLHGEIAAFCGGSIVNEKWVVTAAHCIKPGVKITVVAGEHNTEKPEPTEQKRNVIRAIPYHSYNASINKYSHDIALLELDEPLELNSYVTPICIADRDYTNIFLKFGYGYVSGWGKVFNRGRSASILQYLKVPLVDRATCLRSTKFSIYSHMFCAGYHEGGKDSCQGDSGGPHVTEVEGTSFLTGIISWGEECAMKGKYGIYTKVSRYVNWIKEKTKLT

RRREGGGYYVNWYFDRRR [A1/3]
chromogenic FVIII-like activity (FXa generation) without human FIXa (factor IXa): does not react with bovine FIXa and FX; also recorded: does not give rise to any FXa generation | average clotting time (FVIII inhibitor plasma; 1.25 μM, 2.2 nM FIXa): 91 s | clotting time (FVIII inhibitor plasma; 1.25 μM, 2.2 nM FIXa, duplicate 1): 91.3 s | clotting time (FVIII inhibitor plasma; 1.25 μM, 2.2 nM FIXa, duplicate 2): 91.4 s | average clotting time (FVIII inhibitor plasma; 1.25 μM, w/o FIXa): 104 s | clotting time (FVIII inhibitor plasma; 1.25 μM, w/o FIXa, duplicate 1): 104.5 s | clotting time (FVIII inhibitor plasma; 1.25 μM, w/o FIXa, duplicate 2): 104.3 s | average clotting time (FVIII inhibitor plasma; 2.5 μM, 2.2 nM FIXa): 90 s | clotting time (FVIII inhibitor plasma; 2.5 μM, 2.2 nM FIXa, duplicate 1): 90.2 s | clotting time (FVIII inhibitor plasma; 2.5 μM, 2.2 nM FIXa, duplicate 2): 90.5 s | average clotting time (FVIII inhibitor plasma; 2.5 μM, w/o FIXa): 106 s | clotting time (FVIII inhibitor plasma; 2.5 μM, w/o FIXa, duplicate 1): 106.1 s | clotting time (FVIII inhibitor plasma; 2.5 μM, w/o FIXa, duplicate 2): 105.3 s | average clotting time (FVIII inhibitor plasma; 5 μM, 2.2 nM FIXa): 82 s | clotting time (FVIII inhibitor plasma; 5 μM, 2.2 nM FIXa, duplicate 1): 81 s | clotting time (FVIII inhibitor plasma; 5 μM, 2.2 nM FIXa, duplicate 2): 82 s | average clotting time (FVIII inhibitor plasma; 5 μM, w/o FIXa): 101 s | clotting time (FVIII inhibitor plasma; 5 μM, w/o FIXa, duplicate 1): 101.5 s | clotting time (FVIII inhibitor plasma; 5 μM, w/o FIXa, duplicate 2): 101.1 s | average clotting time (FVIII inhibitor plasma; 7.5 μM, 2.2 nM FIXa): 70 s | clotting time (FVIII inhibitor plasma; 7.5 μM, 2.2 nM FIXa, duplicate 1): 68.8 s | clotting time (FVIII inhibitor plasma; 7.5 μM, 2.2 nM FIXa, duplicate 2): 70.9 s | average clotting time (FVIII inhibitor plasma; 7.5 μM, w/o FIXa): 93 s | clotting time (FVIII inhibitor plasma; 7.5 μM, w/o FIXa, duplicate 1): 93.7 s | clotting time (FVIII inhibitor plasma; 7.5 μM, w/o FIXa, duplicate 2): 92.7 s | average clotting time (FVIII inhibitor plasma; 10 μM, 2.2 nM FIXa): 62 s | clotting time (FVIII inhibitor plasma; 10 μM, 2.2 nM FIXa, duplicate 1): 61.3 s | clotting time (FVIII inhibitor plasma; 10 μM, 2.2 nM FIXa, duplicate 2): 61.8 s | average clotting time (FVIII inhibitor plasma; 10 μM, w/o FIXa): 88 s | clotting time (FVIII inhibitor plasma; 10 μM, w/o FIXa, duplicate 1): 88.4 s | clotting time (FVIII inhibitor plasma; 10 μM, w/o FIXa, duplicate 2): 87.9 s | average clotting time (FVIII inhibitor plasma; 12.5 μM, 2.2 nM FIXa): 61 s | clotting time (FVIII inhibitor plasma; 12.5 μM, 2.2 nM FIXa, duplicate 1): 61 s | clotting time (FVIII inhibitor plasma; 12.5 μM, 2.2 nM FIXa, duplicate 2): 60.2 s | average clotting time (FVIII inhibitor plasma; 12.5 μM, w/o FIXa): 86 s | clotting time (FVIII inhibitor plasma; 12.5 μM, w/o FIXa, duplicate 1): 85.8 s | clotting time (FVIII inhibitor plasma; 12.5 μM, w/o FIXa, duplicate 2): 85.3 s
